Source: US10844077B2, “Thiazolyl-containing compounds for treating proliferative diseases” (Dana-Farber Cancer Institute, Inc., priority 2014, dated 2020)

Tests used:
Type in all cases: binding
[1] = molecular target: broad panel of kinases (Homo sapiens, UniProt P07949, M918T); settings: RET(M918T); 1 μM
[2] = molecular target: broad panel of kinases (Homo sapiens, UniProt Q13470); settings: TNK1; 1 μM
[3] = molecular target: broad panel of kinases (Homo sapiens, UniProt O14730); settings: RIOK3; 1 μM
[4] = molecular target: broad panel of kinases (Homo sapiens, UniProt P49841); settings: GSK3B; 1 μM
[5] = molecular target: broad panel of kinases (Homo sapiens, UniProt O95382); settings: ASK2; 1 μM
[6] = molecular target: broad panel of kinases (Homo sapiens, UniProt Q15835); settings: GRK1; 1 μM
[7] = molecular target: broad panel of kinases (Homo sapiens, UniProt P21127); settings: CDC2L1; 1 μM
[8] = molecular target: broad panel of kinases (Homo sapiens, UniProt P08581); settings: MET; 1 μM
[9] = molecular target: broad panel of kinases (Homo sapiens, UniProt Q09013); settings: DMPK; 1 μM
[10] = molecular target: broad panel of kinases (Homo sapiens, UniProt Q9BYP7); settings: WNK3; 1 μM
[11] = molecular target: broad panel of kinases (Homo sapiens, UniProt Q8TDC3); settings: BRSK1; 1 μM
[12] = molecular target: broad panel of kinases (Homo sapiens, UniProt Q8IWQ3); settings: BRSK2; 1 μM
[13] = molecular target: broad panel of kinases (Homo sapiens, UniProt Q13043); settings: MST1; 1 μM
[14] = molecular target: broad panel of kinases (Homo sapiens, UniProt P42336, M1043I); settings: PIK3CA(M1043I); 1 μM
[15] = molecular target: broad panel of kinases (Homo sapiens, UniProt Q9Y2H1); settings: NDR2; 1 μM
[16] = molecular target: broad panel of kinases (Homo sapiens, UniProt Q13976); settings: PRKG1; 1 μM
[17] = molecular target: broad panel of kinases (Homo sapiens, UniProt Q99640); settings: PKMYT1; 1 μM
[18] = molecular target: broad panel of kinases (Homo sapiens, UniProt P00519, Y253F); settings: ABL1(Y253F)-phosphorylated; 1 μM
[19] = molecular target: broad panel of kinases (Homo sapiens, UniProt Q9NRM7); settings: LATS2; 1 μM
[20] = molecular target: broad panel of kinases (Homo sapiens, UniProt O14965); settings: AURKA; 1 μM
[21] = molecular target: broad panel of kinases (Homo sapiens, UniProt Q9BUB5); settings: MKNK1; 1 μM
[22] = molecular target: broad panel of kinases (Homo sapiens, UniProt Q96NX5); settings: CAMK1G; 1 μM
[23] = molecular target: broad panel of kinases (Homo sapiens, UniProt Q99558); settings: NIK; 1 μM
[24] = molecular target: broad panel of kinases (Homo sapiens, UniProt P29320); settings: EPHA3; 1 μM
[25] = molecular target: broad panel of kinases (Homo sapiens, UniProt Q05655); settings: PRKCD; 1 μM
[26] = molecular target: broad panel of kinases (Homo sapiens, UniProt Q6PHR2); settings: ULK3; 1 μM
[27] = molecular target: broad panel of kinases (Homo sapiens, UniProt P19784); settings: CSNK2A2; 1 μM
[28] = molecular target: broad panel of kinases (Homo sapiens, UniProt Q13627); settings: DYRK1A; 1 μM
[29] = molecular target: broad panel of kinases (Homo sapiens, UniProt Q16659); settings: ERK3; 1 μM
[30] = molecular target: broad panel of kinases (Homo sapiens, UniProt Q16584); settings: MLK3; 1 μM
[31] = molecular target: broad panel of kinases (Homo sapiens, UniProt P36896); settings: ACVR1B; 1 μM
[32] = molecular target: broad panel of kinases (Homo sapiens, UniProt Q5S007, G2019S); settings: LRRK2(G2019S); 1 μM
[33] = molecular target: broad panel of kinases (Homo sapiens, UniProt Q86UX6); settings: YANK3; 1 μM
[34] = molecular target: broad panel of kinases (Homo sapiens, UniProt Q8IVH8); settings: MAP4K3; 1 μM
[35] = molecular target: broad panel of kinases (Homo sapiens, UniProt P50613); settings: CDK7; 1 μM
[36] = molecular target: broad panel of kinases (Homo sapiens, UniProt Q8IU85); settings: CAMK1D; 1 μM
[37] = molecular target: broad panel of kinases (Homo sapiens, UniProt Q96D53); settings: ADCK4; 1 μM

broad panel of kinases (Homo sapiens, UniProt Q13976), sequence (Q13976 2-671 limits assumed): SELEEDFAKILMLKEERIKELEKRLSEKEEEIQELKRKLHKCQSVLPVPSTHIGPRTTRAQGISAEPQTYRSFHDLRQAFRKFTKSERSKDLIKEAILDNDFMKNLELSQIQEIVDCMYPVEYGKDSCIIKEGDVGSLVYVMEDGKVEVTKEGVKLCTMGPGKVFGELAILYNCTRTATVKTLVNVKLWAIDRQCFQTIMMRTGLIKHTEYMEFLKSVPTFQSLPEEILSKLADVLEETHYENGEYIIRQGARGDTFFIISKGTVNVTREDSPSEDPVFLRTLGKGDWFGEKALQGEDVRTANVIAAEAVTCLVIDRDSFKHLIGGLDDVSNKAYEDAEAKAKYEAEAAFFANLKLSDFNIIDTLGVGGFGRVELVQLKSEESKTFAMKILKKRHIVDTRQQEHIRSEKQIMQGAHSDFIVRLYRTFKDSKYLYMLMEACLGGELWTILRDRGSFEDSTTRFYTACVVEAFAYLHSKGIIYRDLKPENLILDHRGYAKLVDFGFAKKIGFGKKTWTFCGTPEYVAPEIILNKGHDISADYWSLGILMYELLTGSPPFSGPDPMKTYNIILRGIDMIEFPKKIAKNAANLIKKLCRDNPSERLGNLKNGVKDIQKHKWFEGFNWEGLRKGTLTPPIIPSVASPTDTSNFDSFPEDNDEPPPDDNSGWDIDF
broad panel of kinases (Homo sapiens, UniProt Q9Y2H1), sequence (Q9Y2H1 2-464 limits assumed): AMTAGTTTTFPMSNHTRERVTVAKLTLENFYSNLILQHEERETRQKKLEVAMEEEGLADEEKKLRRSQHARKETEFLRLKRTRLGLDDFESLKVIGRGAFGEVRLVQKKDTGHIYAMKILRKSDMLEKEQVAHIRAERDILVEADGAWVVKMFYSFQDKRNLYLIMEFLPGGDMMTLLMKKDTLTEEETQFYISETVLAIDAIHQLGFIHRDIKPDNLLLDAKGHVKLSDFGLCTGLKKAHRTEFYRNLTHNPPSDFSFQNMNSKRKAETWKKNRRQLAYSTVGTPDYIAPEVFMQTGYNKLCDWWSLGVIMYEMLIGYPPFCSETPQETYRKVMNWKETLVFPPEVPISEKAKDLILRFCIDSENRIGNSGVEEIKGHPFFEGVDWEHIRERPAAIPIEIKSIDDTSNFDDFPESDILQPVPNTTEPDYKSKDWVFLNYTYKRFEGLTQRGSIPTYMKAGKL
broad panel of kinases (Homo sapiens, UniProt P29320), sequence (P29320 21-983 limits assumed): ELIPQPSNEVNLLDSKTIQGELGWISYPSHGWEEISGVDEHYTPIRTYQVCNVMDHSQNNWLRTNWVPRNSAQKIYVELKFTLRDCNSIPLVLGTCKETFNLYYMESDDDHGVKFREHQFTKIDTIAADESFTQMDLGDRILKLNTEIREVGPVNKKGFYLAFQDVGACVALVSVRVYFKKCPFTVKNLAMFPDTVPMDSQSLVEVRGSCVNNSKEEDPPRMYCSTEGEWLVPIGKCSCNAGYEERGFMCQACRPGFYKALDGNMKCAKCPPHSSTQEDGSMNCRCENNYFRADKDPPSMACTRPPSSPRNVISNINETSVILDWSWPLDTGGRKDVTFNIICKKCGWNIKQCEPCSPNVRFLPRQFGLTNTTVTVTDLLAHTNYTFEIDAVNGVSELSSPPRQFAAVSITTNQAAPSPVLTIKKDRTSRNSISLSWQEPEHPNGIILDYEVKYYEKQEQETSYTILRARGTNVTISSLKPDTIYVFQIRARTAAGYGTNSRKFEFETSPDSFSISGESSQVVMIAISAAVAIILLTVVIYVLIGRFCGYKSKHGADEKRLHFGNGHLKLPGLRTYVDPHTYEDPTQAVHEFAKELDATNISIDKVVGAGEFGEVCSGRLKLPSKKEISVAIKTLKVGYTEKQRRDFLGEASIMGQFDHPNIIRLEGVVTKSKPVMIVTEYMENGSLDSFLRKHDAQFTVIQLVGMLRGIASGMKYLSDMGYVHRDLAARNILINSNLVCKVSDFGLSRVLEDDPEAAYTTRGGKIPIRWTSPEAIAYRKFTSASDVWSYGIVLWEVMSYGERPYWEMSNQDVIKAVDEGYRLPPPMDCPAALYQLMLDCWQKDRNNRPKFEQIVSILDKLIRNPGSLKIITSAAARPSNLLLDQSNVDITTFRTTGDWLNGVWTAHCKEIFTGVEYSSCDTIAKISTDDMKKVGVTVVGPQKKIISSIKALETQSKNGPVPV
broad panel of kinases (Homo sapiens, UniProt P50613), sequence (P50613 2-346 limits assumed): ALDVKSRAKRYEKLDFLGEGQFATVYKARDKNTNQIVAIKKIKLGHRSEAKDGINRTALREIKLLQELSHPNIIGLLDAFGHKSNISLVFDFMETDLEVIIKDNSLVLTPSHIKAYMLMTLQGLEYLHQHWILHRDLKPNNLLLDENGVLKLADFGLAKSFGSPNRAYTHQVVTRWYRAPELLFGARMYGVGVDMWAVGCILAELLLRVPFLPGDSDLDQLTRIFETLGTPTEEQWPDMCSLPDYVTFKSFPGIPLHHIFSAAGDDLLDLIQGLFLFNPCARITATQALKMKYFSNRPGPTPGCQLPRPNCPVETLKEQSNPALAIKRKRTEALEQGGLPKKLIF
broad panel of kinases (Homo sapiens, UniProt P07949, M918T), sequence (P07949 29-1114 M918T limits assumed): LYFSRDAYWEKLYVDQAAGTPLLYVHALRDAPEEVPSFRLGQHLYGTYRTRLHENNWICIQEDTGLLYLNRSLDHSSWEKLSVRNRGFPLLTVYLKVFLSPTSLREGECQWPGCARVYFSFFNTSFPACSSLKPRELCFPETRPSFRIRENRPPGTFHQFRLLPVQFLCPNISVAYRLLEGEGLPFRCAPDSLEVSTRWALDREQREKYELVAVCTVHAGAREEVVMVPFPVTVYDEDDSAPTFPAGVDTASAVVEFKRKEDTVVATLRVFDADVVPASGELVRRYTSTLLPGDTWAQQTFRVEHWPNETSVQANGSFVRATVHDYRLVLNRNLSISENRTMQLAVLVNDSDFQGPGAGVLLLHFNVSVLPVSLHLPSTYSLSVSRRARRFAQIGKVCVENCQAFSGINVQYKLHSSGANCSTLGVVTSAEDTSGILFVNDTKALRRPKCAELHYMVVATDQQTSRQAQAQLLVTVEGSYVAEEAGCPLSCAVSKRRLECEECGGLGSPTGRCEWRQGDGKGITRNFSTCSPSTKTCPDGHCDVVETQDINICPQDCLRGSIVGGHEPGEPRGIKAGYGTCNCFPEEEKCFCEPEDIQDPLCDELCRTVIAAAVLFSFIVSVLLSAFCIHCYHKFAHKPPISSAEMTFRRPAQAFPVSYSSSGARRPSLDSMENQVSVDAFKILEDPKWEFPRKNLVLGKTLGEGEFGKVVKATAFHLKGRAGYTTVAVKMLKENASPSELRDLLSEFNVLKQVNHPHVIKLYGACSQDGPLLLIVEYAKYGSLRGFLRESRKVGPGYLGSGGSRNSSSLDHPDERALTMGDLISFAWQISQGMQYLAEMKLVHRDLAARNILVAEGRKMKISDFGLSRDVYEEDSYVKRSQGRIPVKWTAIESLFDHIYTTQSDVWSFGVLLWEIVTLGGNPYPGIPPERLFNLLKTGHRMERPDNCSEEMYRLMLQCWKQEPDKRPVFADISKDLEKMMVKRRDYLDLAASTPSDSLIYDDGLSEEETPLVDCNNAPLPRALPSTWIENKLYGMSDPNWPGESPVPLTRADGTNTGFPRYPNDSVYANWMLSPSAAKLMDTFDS
broad panel of kinases (Homo sapiens, UniProt P36896), sequence (P36896 24-505 limits assumed): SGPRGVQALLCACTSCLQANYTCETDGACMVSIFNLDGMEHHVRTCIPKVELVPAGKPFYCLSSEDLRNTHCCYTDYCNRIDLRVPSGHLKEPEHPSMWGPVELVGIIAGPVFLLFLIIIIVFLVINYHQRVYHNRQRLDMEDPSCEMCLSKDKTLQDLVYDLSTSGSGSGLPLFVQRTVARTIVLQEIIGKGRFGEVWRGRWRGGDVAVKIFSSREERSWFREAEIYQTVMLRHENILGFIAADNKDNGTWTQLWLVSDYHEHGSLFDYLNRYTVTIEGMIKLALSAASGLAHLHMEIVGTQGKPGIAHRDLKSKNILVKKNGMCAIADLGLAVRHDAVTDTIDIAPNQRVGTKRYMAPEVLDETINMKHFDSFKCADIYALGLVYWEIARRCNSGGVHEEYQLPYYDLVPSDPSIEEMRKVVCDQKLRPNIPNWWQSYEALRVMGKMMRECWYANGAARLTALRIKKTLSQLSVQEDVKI

Row | SMILES | percent of control binding remaining (lower = stronger binding) [1] [%] | percent of control binding remaining (lower = stronger binding) [2] [%] | percent of control binding remaining (lower = stronger binding) [3] [%] | percent of control binding remaining (lower = stronger binding) [4] [%] | percent of control binding remaining (lower = stronger binding) [5] [%] | percent of control binding remaining (lower = stronger binding) [6] [%] | percent of control binding remaining (lower = stronger binding) [7] [%] | percent of control binding remaining (lower = stronger binding) [8] [%] | percent of control binding remaining (lower = stronger binding) [9] [%] | percent of control binding remaining (lower = stronger binding) [10] [%] | percent of control binding remaining (lower = stronger binding) [11] [%] | percent of control binding remaining (lower = stronger binding) [12] [%] | percent of control binding remaining (lower = stronger binding) [13] [%] | percent of control binding remaining (lower = stronger binding) [14] [%] | percent of control binding remaining (lower = stronger binding) [15] [%] | percent of control binding remaining (lower = stronger binding) [16] [%] | percent of control binding remaining (lower = stronger binding) [17] [%] | percent of control binding remaining (lower = stronger binding) [19] [%] | percent of control binding remaining (lower = stronger binding) [20] [%] | percent of control binding remaining (lower = stronger binding) [21] [%] | other results
1 | C=CC(=O)N1CC[C@H](Nc2nc(CN3CCOCC3)cc(Nc3ncc(C(=O)Nc4c(C)cccc4C)s3)n2)C1 [Example I-2] | 92 | 100 | 98 | 100 | 92 | 94 | 88 | 97 | 98 | 100 | 100 | 100 | 100 | 96 | 96 | 100 | 59 | 100 | 73 | 100 | percent of control binding remaining (lower = stronger binding) [18]: 0.1%; percent of control binding remaining (lower = stronger binding) [22]: 89%; percent of control binding remaining (lower = stronger binding) [23]: 91%; percent of control binding remaining (lower = stronger binding) [24]: 47%; percent of control binding remaining (lower = stronger binding) [25]: 96%; percent of control binding remaining (lower = stronger binding) [26]: 97%; percent of control binding remaining (lower = stronger binding) [27]: 57%; percent of control binding remaining (lower = stronger binding) [28]: 100%; percent of control binding remaining (lower = stronger binding) [29]: 100%; percent of control binding remaining (lower = stronger binding) [30]: 100%; percent of control binding remaining (lower = stronger binding) [31]: 68%; percent of control binding remaining (lower = stronger binding) [32]: 100%; percent of control binding remaining (lower = stronger binding) [33]: 83%; percent of control binding remaining (lower = stronger binding) [34]: 100%; percent of control binding remaining (lower = stronger binding) [35]: 94%; percent of control binding remaining (lower = stronger binding) [36]: 100%; percent of control binding remaining (lower = stronger binding) [37]: 95%
2 | C=CC(=O)N1CC[C@H](Nc2nccc(Nc3ncc(C(=O)Nc4c(C)cccc4C)s3)n2)C1 [Example I-3] | 99 | 100 | 90 | 100 | 98 | 97 | 78 | 94 | 98 | 100 | 100 | 95 | 97 | 100 | 58 | 100 | 47 | 92 | 80 | 100 | % change compared to control [18]: 0.1%; percent of control binding remaining (lower = stronger binding) [22]: 97%; percent of control binding remaining (lower = stronger binding) [23]: 84%; percent of control binding remaining (lower = stronger binding) [24]: 49%; percent of control binding remaining (lower = stronger binding) [25]: 95%; percent of control binding remaining (lower = stronger binding) [26]: 98%; percent of control binding remaining (lower = stronger binding) [27]: 70%; percent of control binding remaining (lower = stronger binding) [28]: 100%; percent of control binding remaining (lower = stronger binding) [29]: 89%; percent of control binding remaining (lower = stronger binding) [30]: 85%; percent of control binding remaining (lower = stronger binding) [31]: 100%; percent of control binding remaining (lower = stronger binding) [32]: 99%; percent of control binding remaining (lower = stronger binding) [33]: 91%; percent of control binding remaining (lower = stronger binding) [34]: 100%; percent of control binding remaining (lower = stronger binding) [35]: 94%; percent of control binding remaining (lower = stronger binding) [36]: 90%; percent of control binding remaining (lower = stronger binding) [37]: 92%
